Experimental data from PubChem BioAssay (NCI).
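Where inhibition never reached the appropriate level, the endpoint shown equals the highest concentration tested. Otherwise, values were interpolated linearly from a five-concentration, 48-hour dose response in 96-well plates. TGI: concentration producing complete growth inhibition.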

Key:
Experiment in all cases: DTP human tumour cell line panel, 48 h
[1] = test system: A498 renal
[2] = test system: HCT-116 colon
[3] = test system: EKVX NSCLC
[4] = test system: CCRF-CEM leukemia
[5] = test system: SW-620 colon
[6] = test system: CAKI-1 renal
[7] = test system: PC-3 prostate
[8] = test system: OVCAR-4 ovarian
[9] = test system: HL-60(TB) leukemia
[10] = test system: NCI-H460 lung
[11] = test system: ACHN renal
[12] = test system: SK-MEL-5 melanoma
[13] = test system: U251 CNS
[14] = test system: T-47D breast
[15] = test system: SF-295 CNS
[16] = test system: HCC-2998 colon
[17] = test system: M14 melanoma
[18] = test system: LOX IMVI melanoma
[19] = test system: COLO 205 colon
[20] = test system: RPMI-8226 leukemia
[21] = test system: HCT-15 colon
[22] = test system: HOP-62 NSCLC
[23] = test system: SNB-19 CNS
[24] = test system: SF-268 CNS
[25] = test system: NCI-H23 lung
[26] = test system: 786-0 renal
[27] = test system: MDA-MB-435
[28] = test system: MDA-MB-231 breast
[29] = test system: SK-MEL-28 melanoma
[30] = test system: NCI-H522 lung
[31] = test system: SK-OV-3 ovarian
[32] = test system: IGROV1 ovarian
[33] = test system: MALME-3M melanoma
[34] = test system: NCI-H226 lung
[35] = test system: SNB-75 CNS
[36] = test system: UACC-62 melanoma
[37] = test system: SN12C renal
[38] = test system: KM12 colon
[39] = test system: SF-539 CNS
[40] = test system: HS 578T breast
[41] = test system: DU-145 prostate
[42] = test system: UACC-257 melanoma
[43] = test system: OVCAR-8 ovarian
[44] = test system: OVCAR-5 ovarian
[45] = test system: OVCAR-3 ovarian
[46] = test system: HOP-92 NSCLC
[47] = test system: SK-MEL-2 melanoma
[48] = test system: UO-31 renal
[49] = test system: TK-10 renal
[50] = test system: NCI/ADR-RES ovarian
[51] = test system: MDA-N
[52] = test system: MCF7 breast
[53] = test system: RXF 393 renal
[54] = test system: HT29 colon
[55] = test system: MOLT-4 leukemia
[56] = test system: K-562 leukemia
[57] = test system: A549 NSCLC
[58] = test system: BT-549 breast

Measured: TGI

COC(=O)C1=C(OC(=O)/C(=C/c2ccccc2)c2ccc([N+](=O)[O-])cc2)C(C(=O)OC)[C@@]2(O)[C@@H](C(=O)OC)[C@H](C)C[C@@H]1[C@@H]2C(=O)OC (stereo partly specified)
> 100 µM: all assays above

CC(CN(C)C)C(C#N)(c1ccccc1)c1ccccc1 (stereo unspecified)
> 100 µM: all assays above
